How the values were obtained:
HepaRG cells = assay: Cytotoxicity assay (resazurin) in HepaRG cells, 48 hours; type: cell-based, human; conditions: viability reduction <10%
Description: (§1) Potential cytotoxicity of the validation set chemicals for PHH and HepaRG cells was determined starting from the highest soluble concentration, followed by a 1:1 or 1:3 dilution for PHH and HepaRG cells, respectively. The incubation time reflected the conditions used for the induction assays (72 hours and 48 hours of incubation for PHH and HepaRG cells, respectively). The cytotoxicity assay was based on the conversion of redox dye resazurin to fluorescent resorufin by living cells. Non-viable cells, without metabolic capacity, yield no fluorimetry signal.
(§2) Results were expressed as fractional survival (FS %) with respect to untreated controls and were calculated based on measured relative fluorescent units (RFU), corrected for the background signal: %FS=RFUtreated cells−meanRFUbackground/RFUuntreated cells−meanRFUbackgroundx100
(§3) Cytotoxicity was evaluated from the dose-response curve, where the mean FS (%) of three technical replicates was plotted versus the corresponding concentration.
(§4) The SOP acceptance criteria required a cell viability of 50-70 % for doxorubicin (8 μM, HepaRG cells) and ≤70 % for chlorpromazine (25 μM, PHH), the cytotoxicity reference items. The highest concentration with viability reduction <20% (PHH) or <10% (HepaRG) was eligible as starting concentration for the induction assay.

CYP = CYP isoforms induced; ref Abadie et al. (2009), Richert et al. (2010), Preissner et al. (2010), Hoffmann et al. (2014); cited from earlier work
CYP1A2 = conditions: human in vivo; CYP named without remark = induced; ref references in the cell, Washington University database, Hoffmann et al. (2014), Pelkonen et al. (2008), Hukkanen et al. (2012); cited from earlier work
[1] = Solubility by nephelometry (EURL ECVAM); type: physicochemical
Outline: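 Turbidity from insolubility detected by laser nephelometry (Tyndall light scatter). Formazin standards at 1, 5, 10 and 20 NTU used to calculate relative turbidity; 1 NTU equals solvent/medium blank background, with sensitivity to 5 NTU.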

PHH = assay: Cytotoxicity assay (resazurin) in PHH, 72 hours; type: cell-based, human; conditions: viability reduction <20%
Description: as §1, §2, §3, §4

[2] = Solubility by visual inspection (DMSO stock solution and assay medium); type: physicochemical; conditions: assay medium
Description: The SOPs relied on visual inspection for solubility observation. […] The absence of precipitation in the medium was checked pre- and post-incubation (24 hours) by centrifugation of the sample and observation of any precipitation (pellet residue).

- nephelometry finding in assay medium ([1]; 40 μg/ml, the two media): insoluble suspensions
- HepaRG medium stability ([1]; ECVAM nephelometry, HepaRG medium, ^2 = solubility limit): 10^2 μg/mL
- PHH medium stability ([1]; ECVAM nephelometry, PHH medium, ^2 = solubility limit): 10^2 μg/mL
- HepaRG medium stability ([2]; Lab 1, visual observation): 5 µg/mL
- HepaRG medium stability ([2]; Lab 2, visual observation): 10 µg/mL
- HepaRG medium stability ([2]; Lab 3, visual observation): 10 µg/mL
- PHH medium stability ([2]; Lab 4, visual observation): 10 µg/mL
- PHH medium stability ([2]; Lab 5, visual observation): 20 µg/mL
- PHH medium stability ([2]; Lab 6, visual observation): 20 µg/mL
SMILES: OCc1c[nH]c2ccccc12 [Indole-3-carbinol]
- highest soluble non cytotoxic concentration used for the subsequent induction assay, HepaRG (HepaRG cells): insoluble (excluded)
- CYP induction in vitro (human hepatocytes) (CYP): CYP1A2
- CYP induction in vivo literature reference: CYP1A2 (CYP1A2): CYP 1A2 ([Reed et al., 2005]) CYP2B6/CYP3A4 NO studies
- highest soluble non cytotoxic concentration used for the subsequent induction assay, PHH (PHH): insoluble (excluded)
